Patent US7534805B2, “Imidazole derivatives, their preparation and their use as medicaments” (Societe de Conseils de Recherches Et d'Applications …, priority 2003, dated 2009)

Compound | melting point [°C]
O=S(=O)(c1ccccc1)c1ccc(-c2c[nH]c(COc3ccccc3)n2)cc1 [Example 7, 2-(phenoxymethyl)-4-[4-(phenylsulphonyl)phenyl]-1H-imidazole] | 192 to 194
Fc1ccc(F)c(Oc2ccc(-c3c[nH]c(COc4ccccc4)n3)cc2)c1 [Example 54, 4-[4-(2,5-difluorophenoxy)phenyl]-2-(phenoxymethyl)-1H-imidazole] | 128 to 130
Fc1ccc(Oc2ccc(-c3c[nH]c(COc4ccccc4)n3)cc2)c(F)c1 [Example 55, 4-[4-(2,4-difluorophenoxy)phenyl]-2-(phenoxymethyl)-1H-imidazole] | 131 to 133
O=[N+]([O-])c1ccccc1Oc1ccc(-c2c[nH]c(COc3ccccc3)n2)cc1 [Example 40, 4-[4-(2-nitrophenoxy)phenyl]-2-(phenoxymethyl)-1H-imidazole] | 128 to 129
Oc1ccc(Oc2ccc(-c3c[nH]c(COc4ccccc4)n3)cc2)cc1 [Example 34, 4-{4-[2-(phenoxymethyl)-1H-imidazol-4-yl]phenoxy}phenol] | 211 to 213
N#Cc1ccc(Oc2ccc(-c3c[nH]c(COc4ccccc4)n3)cc2)cc1 [Example 23, 4-{4-[2-(phenoxymethyl)-1H-imidazol-4-yl]phenoxy}benzonitrile] | 179 to 181
CCCCCCc1ccc(-c2c[nH]c(COc3ccccc3)n2)cc1 [Example 13, 4-(4-hexylphenyl)-2-(phenoxymethyl)-1H-imidazole] | 151 to 153
Clc1cccc(Oc2ccc(-c3c[nH]c(COc4ccccc4)n3)cc2)c1 [Example 46, 4-[4-(3-chlorophenoxy)phenyl]-2-(phenoxymethyl)-1H-imidazole] | 146 to 148
COCCOc1ccc(-c2c[nH]c(COc3ccccc3)n2)cc1 [Example 19, 4-[4-(2-methoxyethoxy)phenyl]-2-(phenoxymethyl)-1H-imidazole] | 159 to 161
Fc1ccc(Oc2ccc(-c3c[nH]c(COc4ccccc4)n3)cc2)cc1F [Example 52, 4-[4-(3,4-difluorophenoxy)phenyl]-2-(phenoxymethyl)-1H-imidazole] | 188 to 190
CCOC(=O)c1ccc(Oc2ccc(-c3c[nH]c(COc4ccccc4)n3)cc2)cc1 [Example 25, ethyl 4-{4-[2-(phenoxymethyl)-1H-imidazol-4-yl]phenoxy}benzoate] | 100 to 102
Cl.Clc1ccccc1Oc1ccc(-c2c[nH]c(COc3ccccc3)n2)cc1 | 158 to 160
Fc1cccc(F)c1Oc1ccc(-c2c[nH]c(COc3ccccc3)n2)cc1 [Example 57, 4-[4-(2,6-difluorophenoxy)phenyl]-2-(phenoxymethyl)-1H-imidazole] | 143 to 145
O=C(Nc1ccc(-c2c[nH]c(COc3ccccc3)n2)cc1)c1ccc(F)cc1 [Example 22, 4-fluoro-N-{4-[2-(phenoxymethyl)-1H-imidazol-4-yl]phenyl}benzamide] | 224 to 225
O=C(Nc1ccc(F)cc1)c1ccc(-c2c[nH]c(COc3ccccc3)n2)cc1.O=C(O)C(F)(F)F | 198 to 200
Fc1ccc(Oc2ccc(-c3c[nH]c(CSc4ccccc4)n3)cc2)cc1 [Example 4, 4-[4-(4-fluorophenoxy)phenyl]-2-[(phenylthio)methyl]-1H-imidazole] | 108 to 110
CS(=O)(=O)c1ccc(Oc2ccc(-c3c[nH]c(COc4ccccc4)n3)cc2)cc1 [Example 27, 4-{4-[4-(methylsulphonyl)phenoxy]phenyl}-2-(phenoxymethyl)-1H-imidazole] | 143 to 145
Cc1cccc(Oc2ccc(-c3c[nH]c(COc4ccccc4)n3)cc2)c1 [Example 49, 4-[4-(3-methylphenoxy)phenyl]-2-(phenoxymethyl)-1H-imidazole] | 160 to 162
CN(C)CCOc1ccc(-c2c[nH]c(COc3ccccc3)n2)cc1.Cl | 206 to 208
Cl.NCC(=O)Nc1ccc(Oc2ccc(-c3c[nH]c(COc4ccccc4)n3)cc2)cc1 | > 250
c1ccc(OCc2nc(-c3ccc(OCCN4CCOCC4)cc3)c[nH]2)cc1 [Example 16, 4-(2-{4-[2-(phenoxymethyl)-1H-imidazol-4-yl]phenoxy}ethyl) morpholine] | 144 to 146
O=[N+]([O-])c1cccc(Oc2ccc(-c3c[nH]c(COc4ccccc4)n3)cc2)c1 [Example 31, 4-[4-(3-nitrophenoxy)phenyl]-2-(phenoxymethyl)-1H-imidazole] | 140 to 142
c1ccc(SCc2nc(-c3ccc(-c4ccccc4)cc3)c[nH]2)cc1 [Example 2, 4-(1,1′-biphenyl-4-yl)-2-[(phenylthio)methyl]-1H-imidazole] | 150 to 152
Cl.c1ccc(OCc2nc(-c3ccc(OCCN4CCCCC4)cc3)c[nH]2)cc1 | 227 to 229
Brc1ccc(Oc2ccc(-c3c[nH]c(COc4ccccc4)n3)cc2)cc1.O=C(O)C(F)(F)F | 174 to 176
Fc1ccccc1COc1ccc(-c2c[nH]c(COc3ccccc3)n2)cc1 [Example 8, 4-{4-[(2-fluorobenzyl)oxy]phenyl}-2-(phenoxymethyl)-1H-imidazole] | 182 to 183

Compound | melting point [°C]
N#Cc1cccc(Oc2ccc(-c3c[nH]c(COc4ccccc4)n3)cc2)c1 [Example 39, 3-{4-[2-(phenoxymethyl)-1H-imidazol-4-yl]phenoxy}benzonitrile] | 161 to 163
c1ccc(OCc2nc(-c3ccc(-n4ccnc4)cc3)c[nH]2)cc1 [Example 11, 4-[4-(1H-imidazol-1-yl)phenyl]-2-(phenoxymethyl)-1H-imidazole] | 194 to 196
CCCCOc1ccc(-c2c[nH]c(COc3ccccc3)n2)cc1 [Example 14, 4-(4-butoxyphenyl)-2-(phenoxymethyl)-1H-imidazole] | 179 to 181
Fc1cccc(Oc2ccc(-c3c[nH]c(COc4ccccc4)n3)cc2)c1F [Example 56, 4-[4-(2,3-difluorophenoxy)phenyl]-2-(phenoxymethyl)-1H-imidazole] | 127 to 129
O=[N+]([O-])c1ccc(Oc2ccc(-c3c[nH]c(COc4ccccc4)n3)cc2)cc1 [Example 15, 4-[4-(4-nitrophenoxy)phenyl]-2-(phenoxymethyl)-1H-imidazole] | 187 to 189
c1ccc(OCc2nc(-c3ccc(-c4ccccc4)cc3)c[nH]2)cc1 [Example 3, 4-(1,1′-biphenyl-4-yl)-2-(phenoxymethyl)-1H-imidazole] | 185 to 187
O=C(O)C(F)(F)F.c1ccc(OCc2nc(-c3ccc(Oc4ccccc4)cc3)c[nH]2)cc1 | 112 to 114
Fc1ccccc1Oc1ccc(-c2c[nH]c(COc3ccccc3)n2)cc1 [Example 51, 4-[4-(2-fluorophenoxy)phenyl]-2-(phenoxymethyl)-1H-imidazole] | 154 to 156
Fc1cccc(Oc2ccc(-c3c[nH]c(COc4ccccc4)n3)cc2)c1 [Example 35, 4-[4-(3-fluorophenoxy)phenyl]-2-(phenoxymethyl)-1H-imidazole] | 177 to 179
COc1ccc(Oc2ccc(-c3c[nH]c(COc4ccccc4)n3)cc2)cc1 [Example 12, 4-[4-(4-methoxyphenoxy)phenyl]-2-(phenoxymethyl)-1H-imidazole] | 132 to 134
Cc1[nH]c(COc2ccccc2)nc1-c1ccc(Oc2ccc(F)cc2)cc1 [Example 21, 4-[4-(4-fluorophenoxy)phenyl]-5-methyl-2-(phenoxymethyl)-1H-imidazole] | < 40
c1ccc(COc2ccc(Oc3ccc(-c4c[nH]c(COc5ccccc5)n4)cc3)cc2)cc1 [Example 33, 4-{4-[4-(benzyloxy)phenoxy]phenyl}-2-(phenoxymethyl)-1H-imidazole] | 134 to 136
Fc1ccc(OCc2nc(-c3ccc(Oc4ccc(F)cc4)cc3)c[nH]2)cc1 [Example 5, 2-[(4-fluorophenoxy)methyl]-4-[4-(4-fluorophenoxy)phenyl]-1H-imidazole] | 193 to 195
O=C(O)C(F)(F)F.O=C(c1ccccc1)c1ccc(-c2c[nH]c(COc3ccccc3)n2)cc1 | < 50
FC(F)(F)CCCOc1ccc(-c2c[nH]c(COc3ccccc3)n2)cc1 [Example 20, 2-(phenoxymethyl)-4-[4-(4,4,4-trifluorobutoxy)phenyl]-1H-imidazole] | 194 to 196
c1ccc(Cc2ccc(-c3c[nH]c(COc4ccccc4)n3)cc2)cc1 [Example 48, 4-(4-benzylphenyl)-2-(phenoxymethyl)-1H-imidazole] | 147 to 148
Fc1cc(F)cc(Oc2ccc(-c3c[nH]c(COc4ccccc4)n3)cc2)c1 [Example 47, 4-[4-(3,5-difluorophenoxy)phenyl]-2-(phenoxymethyl)-1H-imidazole] | 160 to 161
Cl.Nc1cccc(Oc2ccc(-c3c[nH]c(COc4ccccc4)n3)cc2)c1 | > 300
Cl.Nc1ccccc1Oc1ccc(-c2c[nH]c(COc3ccccc3)n2)cc1 | 88 to 89
Brc1cccc(Oc2ccc(-c3c[nH]c(COc4ccccc4)n3)cc2)c1 [Example 44, 4-[4-(3-bromophenoxy)phenyl]-2-(phenoxymethyl)-1H-imidazole] | 133 to 135
c1ccc(OCc2nc(-c3ccc(Sc4ccccc4)cc3)c[nH]2)cc1 [Example 6, 2-(phenoxymethyl)-4-[4-(phenylthio)phenyl]-1H-imidazole] | 144 to 146
CCOC(=O)c1ccc(-c2c[nH]c(COc3ccccc3)n2)cc1 [Example 24, ethyl 4-[2-(phenoxymethyl)-1H-imidazol-4-yl]benzoate] | 133 to 135
Cl.NCc1ccc(Oc2ccc(-c3c[nH]c(COc4ccccc4)n3)cc2)cc1 | > 300
CSc1ccc(Oc2ccc(-c3c[nH]c(COc4ccccc4)n3)cc2)cc1 [Example 26, 4-{4-[4-(methylthio)phenoxy]phenyl}-2-(phenoxymethyl)-1H-imidazole] | 122 to 124
Nc1ccc(Oc2ccc(-c3c[nH]c(COc4ccccc4)n3)cc2)cc1[N+](=O)[O-].O=C(O)C(F)(F)F | 178 to 180
